Test results: the kinase profiling compilation of Christmann-Franck et al. (2016)

Assays:
Test in all cases: KINOMEscan competition binding
Details in all cases: compound 10.0 µM
AAK1 (human) = AAK1 (human) (UniProt Q2M2I8)
ACVR2A (human) = ACVR2A (human) (UniProt P27037)
AURKC (human) = AURKC (human) (UniProt Q9UQB9)
CHUK (human) = CHUK (human) (UniProt O15111)
CSNK1G1 (human) = CSNK1G1 (human) (UniProt Q9HCP0)
[1] = tested on: EGFR (human), P00533 [A750P; 747-749 del]
EPHA4 (human) = EPHA4 (human) (UniProt P54764)
EPHB4 (human) = EPHB4 (human) (UniProt P54760)
[2] = tested on: FLT3 (human), P36888 [D835H]
ITK (human) = ITK (human) (UniProt Q08881)
[3] = target: JAK1 JH2 pseudokinase (human) (UniProt P23458)
[4] = target: JAK2 JH1 catalytic (human) (UniProt O60674)
KDR (human) = KDR (human) (UniProt P35968)
LTK (human) = LTK (human) (UniProt P29376)
LYN (human) = LYN (human) (UniProt P07948)
MAP2K1 (human) = MAP2K1 (human) (UniProt Q02750)
Chain of MAP2K1 (human) (Q02750 whole entry, looked up): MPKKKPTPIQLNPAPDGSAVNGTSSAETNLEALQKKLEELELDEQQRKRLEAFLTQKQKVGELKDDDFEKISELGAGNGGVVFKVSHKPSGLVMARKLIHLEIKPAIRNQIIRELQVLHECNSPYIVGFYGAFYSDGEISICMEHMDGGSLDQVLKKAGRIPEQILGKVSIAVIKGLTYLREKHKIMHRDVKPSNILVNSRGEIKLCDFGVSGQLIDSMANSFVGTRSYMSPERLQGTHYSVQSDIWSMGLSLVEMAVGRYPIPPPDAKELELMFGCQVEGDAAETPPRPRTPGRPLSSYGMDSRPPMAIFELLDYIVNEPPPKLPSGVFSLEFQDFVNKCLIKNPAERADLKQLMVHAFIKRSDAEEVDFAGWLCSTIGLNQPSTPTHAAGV

MAP2K3 (human) = MAP2K3 (human) (UniProt P46734)
MAPK14 (human) = MAPK14 (human) (UniProt Q16539)
Chain of MAPK14 (human) (Q16539 whole entry, looked up): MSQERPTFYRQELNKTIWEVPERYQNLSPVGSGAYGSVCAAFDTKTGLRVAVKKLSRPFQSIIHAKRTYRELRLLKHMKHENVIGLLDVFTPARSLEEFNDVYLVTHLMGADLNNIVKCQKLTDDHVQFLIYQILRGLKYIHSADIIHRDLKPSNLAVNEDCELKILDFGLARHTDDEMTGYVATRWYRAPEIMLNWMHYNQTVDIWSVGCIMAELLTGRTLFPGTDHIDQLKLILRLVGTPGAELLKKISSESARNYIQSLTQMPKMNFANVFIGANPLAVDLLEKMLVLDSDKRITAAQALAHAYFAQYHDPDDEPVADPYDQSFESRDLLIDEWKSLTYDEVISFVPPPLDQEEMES

MAPK15 (human) = MAPK15 (human) (UniProt Q8TD08)
Chain of MAPK15 (human) (Q8TD08 whole entry, looked up): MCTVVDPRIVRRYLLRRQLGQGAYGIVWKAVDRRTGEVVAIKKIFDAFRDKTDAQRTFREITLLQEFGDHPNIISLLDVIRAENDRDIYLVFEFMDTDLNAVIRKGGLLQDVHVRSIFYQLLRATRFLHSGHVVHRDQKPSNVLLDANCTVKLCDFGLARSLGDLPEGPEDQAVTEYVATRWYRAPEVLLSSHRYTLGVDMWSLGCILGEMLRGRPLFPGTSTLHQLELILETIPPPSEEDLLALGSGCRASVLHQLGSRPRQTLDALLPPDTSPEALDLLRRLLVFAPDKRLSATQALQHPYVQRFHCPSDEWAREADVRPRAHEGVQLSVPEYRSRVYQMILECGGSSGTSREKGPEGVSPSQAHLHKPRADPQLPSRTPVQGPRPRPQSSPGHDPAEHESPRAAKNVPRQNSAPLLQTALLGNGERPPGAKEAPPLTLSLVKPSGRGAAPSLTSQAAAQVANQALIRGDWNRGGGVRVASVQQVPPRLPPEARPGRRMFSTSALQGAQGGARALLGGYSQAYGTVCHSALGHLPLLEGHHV

MAPK6 (human) = MAPK6 (human) (UniProt Q16659)
MAPK7 (human) = MAPK7 (human) (UniProt Q13164)
MAPK8 (human) = MAPK8 (human) (UniProt P45983)
MYLK2 (human) = MYLK2 (human) (UniProt Q9H1R3)
Chain of MYLK2 (human) (Q9H1R3 whole entry, looked up): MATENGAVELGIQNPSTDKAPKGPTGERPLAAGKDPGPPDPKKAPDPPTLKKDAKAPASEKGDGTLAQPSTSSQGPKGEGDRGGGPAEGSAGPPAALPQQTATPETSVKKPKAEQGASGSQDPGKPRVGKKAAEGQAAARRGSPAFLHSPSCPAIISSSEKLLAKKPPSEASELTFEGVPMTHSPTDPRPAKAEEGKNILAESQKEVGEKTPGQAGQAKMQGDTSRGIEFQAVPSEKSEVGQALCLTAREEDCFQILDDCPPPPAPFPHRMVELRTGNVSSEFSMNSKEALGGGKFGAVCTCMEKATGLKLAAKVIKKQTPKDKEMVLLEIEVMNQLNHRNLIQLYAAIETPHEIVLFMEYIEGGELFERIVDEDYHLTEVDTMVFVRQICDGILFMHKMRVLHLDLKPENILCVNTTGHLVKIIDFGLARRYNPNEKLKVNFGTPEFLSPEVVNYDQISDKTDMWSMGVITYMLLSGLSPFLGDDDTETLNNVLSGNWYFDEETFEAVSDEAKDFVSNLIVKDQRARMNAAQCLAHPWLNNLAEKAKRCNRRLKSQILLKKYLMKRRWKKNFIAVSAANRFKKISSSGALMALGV

NEK9 (human) = NEK9 (human) (UniProt Q8TD19)
PDGFRB (human) = PDGFRB (human) (UniProt P09619)
PKN1 (human) = PKN1 (human) (UniProt Q16512)
PRKACA (human) = PRKACA (human) (UniProt P17612)
[5] = tested on: RET (human), P07949 [V804M]
RIOK1 (human) = RIOK1 (human) (UniProt Q9BRS2)
RPS6KA1 KD1 (human) = RPS6KA1 KD1 (human) (UniProt Q15418)
RPS6KA2 KD2 (human) = RPS6KA2 KD2 (human) (UniProt Q15349)
RPS6KA4 KD2 (human) = RPS6KA4 KD2 (human) (UniProt O75676)
RPS6KA6 KD1 (human) = RPS6KA6 KD1 (human) (UniProt Q9UK32)
SIK1 (human) = SIK1 (human) (UniProt P57059)
STK11 (human) = STK11 (human) (UniProt Q15831)
Chain of STK11 (human) (Q15831 whole entry, looked up): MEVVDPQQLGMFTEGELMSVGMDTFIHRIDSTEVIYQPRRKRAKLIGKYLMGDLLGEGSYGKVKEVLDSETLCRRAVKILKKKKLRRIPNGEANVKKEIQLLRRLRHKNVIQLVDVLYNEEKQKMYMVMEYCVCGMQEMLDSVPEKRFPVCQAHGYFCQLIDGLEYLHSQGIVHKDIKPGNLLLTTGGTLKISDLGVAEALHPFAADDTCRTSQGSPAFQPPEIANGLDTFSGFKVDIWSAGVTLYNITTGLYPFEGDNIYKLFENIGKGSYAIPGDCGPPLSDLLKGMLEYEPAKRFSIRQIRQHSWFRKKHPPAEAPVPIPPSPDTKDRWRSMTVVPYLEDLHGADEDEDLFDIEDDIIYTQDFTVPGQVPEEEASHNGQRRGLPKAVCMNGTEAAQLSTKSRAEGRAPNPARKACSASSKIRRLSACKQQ

STK25 (human) = STK25 (human) (UniProt O00506)
Chain of STK25 (human) (O00506 whole entry, looked up): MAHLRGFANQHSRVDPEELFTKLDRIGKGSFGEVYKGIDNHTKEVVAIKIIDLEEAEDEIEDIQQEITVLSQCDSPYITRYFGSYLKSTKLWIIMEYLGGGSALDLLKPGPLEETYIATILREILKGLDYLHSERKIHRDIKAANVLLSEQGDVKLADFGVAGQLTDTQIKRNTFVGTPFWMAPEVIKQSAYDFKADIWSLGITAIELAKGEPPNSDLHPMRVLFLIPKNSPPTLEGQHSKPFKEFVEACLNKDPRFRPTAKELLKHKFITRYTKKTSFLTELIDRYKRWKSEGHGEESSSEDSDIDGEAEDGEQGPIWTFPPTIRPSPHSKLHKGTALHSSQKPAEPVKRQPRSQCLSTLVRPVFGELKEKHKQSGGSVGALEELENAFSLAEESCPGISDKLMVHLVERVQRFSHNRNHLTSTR

TAOK3 (human) = TAOK3 (human) (UniProt Q9H2K8)
TEK (human) = TEK (human) (UniProt Q02763)
TLK1 (human) = TLK1 (human) (UniProt Q9UKI8)
Chain of TLK1 (human) (Q9UKI8 whole entry, looked up): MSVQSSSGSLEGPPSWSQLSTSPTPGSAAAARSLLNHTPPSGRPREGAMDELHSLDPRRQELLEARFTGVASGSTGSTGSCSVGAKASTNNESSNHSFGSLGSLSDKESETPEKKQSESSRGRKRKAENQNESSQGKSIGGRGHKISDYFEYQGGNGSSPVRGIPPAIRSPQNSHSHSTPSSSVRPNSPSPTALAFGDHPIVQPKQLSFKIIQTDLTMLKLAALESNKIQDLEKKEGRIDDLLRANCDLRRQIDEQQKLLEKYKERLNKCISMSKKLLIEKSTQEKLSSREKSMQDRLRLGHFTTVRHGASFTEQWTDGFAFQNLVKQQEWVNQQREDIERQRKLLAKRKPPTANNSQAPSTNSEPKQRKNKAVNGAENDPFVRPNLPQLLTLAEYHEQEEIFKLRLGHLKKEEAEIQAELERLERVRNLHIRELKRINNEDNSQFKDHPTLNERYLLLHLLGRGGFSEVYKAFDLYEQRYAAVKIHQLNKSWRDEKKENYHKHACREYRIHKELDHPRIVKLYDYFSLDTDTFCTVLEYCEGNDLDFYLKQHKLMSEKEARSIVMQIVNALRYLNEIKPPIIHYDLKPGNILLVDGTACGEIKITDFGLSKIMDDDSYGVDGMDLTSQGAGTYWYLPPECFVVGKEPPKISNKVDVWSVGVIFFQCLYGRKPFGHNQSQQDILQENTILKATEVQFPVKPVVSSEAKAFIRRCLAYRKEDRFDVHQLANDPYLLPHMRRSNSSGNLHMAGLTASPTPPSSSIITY

TTK (human) = TTK (human) (UniProt P33981)
Chain of TTK (human) (P33981 whole entry, looked up): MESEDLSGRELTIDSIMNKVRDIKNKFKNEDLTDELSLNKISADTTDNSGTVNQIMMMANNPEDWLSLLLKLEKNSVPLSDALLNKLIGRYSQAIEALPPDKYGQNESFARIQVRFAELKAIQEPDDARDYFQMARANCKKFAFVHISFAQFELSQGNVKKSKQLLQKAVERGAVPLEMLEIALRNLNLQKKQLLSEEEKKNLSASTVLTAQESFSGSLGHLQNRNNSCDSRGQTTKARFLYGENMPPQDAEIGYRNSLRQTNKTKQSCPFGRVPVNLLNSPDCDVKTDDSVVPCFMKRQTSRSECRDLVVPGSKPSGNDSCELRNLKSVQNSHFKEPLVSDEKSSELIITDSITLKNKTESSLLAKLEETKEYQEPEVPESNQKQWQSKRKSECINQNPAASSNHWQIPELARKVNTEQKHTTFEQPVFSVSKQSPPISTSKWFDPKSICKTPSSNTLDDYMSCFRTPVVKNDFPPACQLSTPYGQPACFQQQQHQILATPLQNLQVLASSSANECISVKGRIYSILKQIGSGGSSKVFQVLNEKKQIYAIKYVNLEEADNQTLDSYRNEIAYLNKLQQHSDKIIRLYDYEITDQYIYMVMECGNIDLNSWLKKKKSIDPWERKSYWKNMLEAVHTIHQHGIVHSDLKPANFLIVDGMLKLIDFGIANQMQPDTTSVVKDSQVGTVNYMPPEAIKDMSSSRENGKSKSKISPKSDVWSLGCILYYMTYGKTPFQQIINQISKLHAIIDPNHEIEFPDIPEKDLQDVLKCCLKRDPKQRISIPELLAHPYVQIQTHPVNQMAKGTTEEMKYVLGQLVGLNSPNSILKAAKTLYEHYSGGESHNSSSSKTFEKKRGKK

[6] = target: TYK2 JH2 pseudokinase (human) (UniProt P29597)
ULK2 (human) = ULK2 (human) (UniProt Q8IYT8)

Chain of CSNK1G1 (human) (Q9HCP0 whole entry, looked up): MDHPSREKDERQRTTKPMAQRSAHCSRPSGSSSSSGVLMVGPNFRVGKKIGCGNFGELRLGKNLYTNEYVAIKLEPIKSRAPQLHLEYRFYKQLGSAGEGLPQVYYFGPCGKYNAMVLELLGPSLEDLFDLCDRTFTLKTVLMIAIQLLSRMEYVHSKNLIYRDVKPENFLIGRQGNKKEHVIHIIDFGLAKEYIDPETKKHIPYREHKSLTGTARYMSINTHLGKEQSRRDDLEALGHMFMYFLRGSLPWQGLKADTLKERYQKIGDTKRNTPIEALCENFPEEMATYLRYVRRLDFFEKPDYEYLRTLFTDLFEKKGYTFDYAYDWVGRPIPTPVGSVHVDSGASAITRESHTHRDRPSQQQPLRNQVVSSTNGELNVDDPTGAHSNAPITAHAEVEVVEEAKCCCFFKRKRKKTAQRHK

CN1C(=O)c2ccccc2N(C)c2nc(Nc3ccc(N4CCC(O)CC4)cc3)ncc21
kinase still bound, per cent of control (AAK1 (human)): 62% | kinase still bound, per cent of control (ACVR2A (human)): 90% | kinase still bound, per cent of control (AURKC (human)): 22% | kinase still bound, per cent of control (CHUK (human)): 79% | kinase still bound, per cent of control (CSNK1G1 (human)): 73% | kinase still bound, per cent of control [1]: 98% | kinase still bound, per cent of control (EPHA4 (human)): 97% | kinase still bound, per cent of control (EPHB4 (human)): 100% | kinase still bound, per cent of control [2]: 28% | kinase still bound, per cent of control (ITK (human)): 96% | kinase still bound, per cent of control [3]: 4.8% | kinase still bound, per cent of control [4]: 1.3% | kinase still bound, per cent of control (KDR (human)): 97% | kinase still bound, per cent of control (LTK (human)): 100% | kinase still bound, per cent of control (LYN (human)): 80% | kinase still bound, per cent of control (MAP2K1 (human)): 100% | kinase still bound, per cent of control (MAP2K3 (human)): 84% | kinase still bound, per cent of control (MAPK14 (human)): 100% | kinase still bound, per cent of control (MAPK15 (human)): 100% | kinase still bound, per cent of control (MAPK6 (human)): 97% | kinase still bound, per cent of control (MAPK7 (human)): 0.25% | kinase still bound, per cent of control (MAPK8 (human)): 100% | kinase still bound, per cent of control (MYLK2 (human)): 80% | kinase still bound, per cent of control (NEK9 (human)): 100% | kinase still bound, per cent of control (PDGFRB (human)): 61% | kinase still bound, per cent of control (PKN1 (human)): 100% | kinase still bound, per cent of control (PRKACA (human)): 100% | kinase still bound, per cent of control [5]: 3% | kinase still bound, per cent of control (RIOK1 (human)): 90% | kinase still bound, per cent of control (RPS6KA1 KD1 (human)): 66% | kinase still bound, per cent of control (RPS6KA2 KD2 (human)): 91% | kinase still bound, per cent of control (RPS6KA4 KD2 (human)): 89% | kinase still bound, per cent of control (RPS6KA6 KD1 (human)): 61% | kinase still bound, per cent of control (SIK1 (human)): 79% | kinase still bound, per cent of control (STK11 (human)): 100% | kinase still bound, per cent of control (STK25 (human)): 96% | kinase still bound, per cent of control (TAOK3 (human)): 1.2% | kinase still bound, per cent of control (TEK (human)): 72% | kinase still bound, per cent of control (TLK1 (human)): 69% | kinase still bound, per cent of control (TTK (human)): 78% | kinase still bound, per cent of control [6]: 71% | kinase still bound, per cent of control (ULK2 (human)): 6.2%

COc1cc(N2CCN(C)CC2)ccc1Nc1ncc2c(n1)N(C)c1sccc1C(=O)N2C
kinase still bound, per cent of control (AAK1 (human)): 75% | kinase still bound, per cent of control (ACVR2A (human)): 100% | kinase still bound, per cent of control (AURKC (human)): 82% | kinase still bound, per cent of control (CHUK (human)): 46% | kinase still bound, per cent of control (CSNK1G1 (human)): 89% | kinase still bound, per cent of control [1]: 70% | kinase still bound, per cent of control (EPHA4 (human)): 100% | kinase still bound, per cent of control (EPHB4 (human)): 100% | kinase still bound, per cent of control [2]: 80% | kinase still bound, per cent of control (ITK (human)): 81% | kinase still bound, per cent of control [3]: 78% | kinase still bound, per cent of control [4]: 34% | kinase still bound, per cent of control (KDR (human)): 90% | kinase still bound, per cent of control (LTK (human)): 83% | kinase still bound, per cent of control (LYN (human)): 100% | kinase still bound, per cent of control (MAP2K1 (human)): 90% | kinase still bound, per cent of control (MAP2K3 (human)): 39% | kinase still bound, per cent of control (MAPK14 (human)): 82% | kinase still bound, per cent of control (MAPK15 (human)): 87% | kinase still bound, per cent of control (MAPK6 (human)): 61% | kinase still bound, per cent of control (MAPK7 (human)): 0.1% | kinase still bound, per cent of control (MAPK8 (human)): 86% | kinase still bound, per cent of control (MYLK2 (human)): 90% | kinase still bound, per cent of control (NEK9 (human)): 94% | kinase still bound, per cent of control (PDGFRB (human)): 51% | kinase still bound, per cent of control (PKN1 (human)): 91% | kinase still bound, per cent of control (PRKACA (human)): 97% | kinase still bound, per cent of control [5]: 88% | kinase still bound, per cent of control (RIOK1 (human)): 71% | kinase still bound, per cent of control (RPS6KA1 KD1 (human)): 92% | kinase still bound, per cent of control (RPS6KA2 KD2 (human)): 15% | kinase still bound, per cent of control (RPS6KA4 KD2 (human)): 13% | kinase still bound, per cent of control (RPS6KA6 KD1 (human)): 96% | kinase still bound, per cent of control (SIK1 (human)): 81% | kinase still bound, per cent of control (STK11 (human)): 90% | kinase still bound, per cent of control (STK25 (human)): 80% | kinase still bound, per cent of control (TAOK3 (human)): 13% | kinase still bound, per cent of control (TEK (human)): 88% | kinase still bound, per cent of control (TLK1 (human)): 74% | kinase still bound, per cent of control (TTK (human)): 13% | kinase still bound, per cent of control [6]: 43% | kinase still bound, per cent of control (ULK2 (human)): 1.2%

COc1cc(N2CCC(O)CC2)ccc1Nc1ncc2c(n1)N1CCc3cccc(c31)C(=O)N2C
kinase still bound, per cent of control (AAK1 (human)): 35% | kinase still bound, per cent of control (ACVR2A (human)): 100% | kinase still bound, per cent of control (AURKC (human)): 89% | kinase still bound, per cent of control (CHUK (human)): 79% | kinase still bound, per cent of control (CSNK1G1 (human)): 100% | kinase still bound, per cent of control [1]: 84% | kinase still bound, per cent of control (EPHA4 (human)): 98% | kinase still bound, per cent of control (EPHB4 (human)): 100% | kinase still bound, per cent of control [2]: 73% | kinase still bound, per cent of control (ITK (human)): 90% | kinase still bound, per cent of control [3]: 70% | kinase still bound, per cent of control [4]: 69% | kinase still bound, per cent of control (KDR (human)): 79% | kinase still bound, per cent of control (LTK (human)): 100% | kinase still bound, per cent of control (LYN (human)): 92% | kinase still bound, per cent of control (MAP2K1 (human)): 100% | kinase still bound, per cent of control (MAP2K3 (human)): 92% | kinase still bound, per cent of control (MAPK14 (human)): 61% | kinase still bound, per cent of control (MAPK15 (human)): 100% | kinase still bound, per cent of control (MAPK6 (human)): 100% | kinase still bound, per cent of control (MAPK7 (human)): 0.3% | kinase still bound, per cent of control (MAPK8 (human)): 68% | kinase still bound, per cent of control (MYLK2 (human)): 98% | kinase still bound, per cent of control (NEK9 (human)): 77% | kinase still bound, per cent of control (PDGFRB (human)): 87% | kinase still bound, per cent of control (PKN1 (human)): 100% | kinase still bound, per cent of control (PRKACA (human)): 100% | kinase still bound, per cent of control [5]: 93% | kinase still bound, per cent of control (RIOK1 (human)): 100% | kinase still bound, per cent of control (RPS6KA1 KD1 (human)): 94% | kinase still bound, per cent of control (RPS6KA2 KD2 (human)): 23% | kinase still bound, per cent of control (RPS6KA4 KD2 (human)): 17% | kinase still bound, per cent of control (RPS6KA6 KD1 (human)): 87% | kinase still bound, per cent of control (SIK1 (human)): 88% | kinase still bound, per cent of control (STK11 (human)): 91% | kinase still bound, per cent of control (STK25 (human)): 99% | kinase still bound, per cent of control (TAOK3 (human)): 70% | kinase still bound, per cent of control (TEK (human)): 98% | kinase still bound, per cent of control (TLK1 (human)): 91% | kinase still bound, per cent of control (TTK (human)): 6.1% | kinase still bound, per cent of control [6]: 70% | kinase still bound, per cent of control (ULK2 (human)): 80%
